Reference: US11384078B2, “5,6-fused-bicyclic compounds and compositions for the treatment of parasitic diseases” (NOVARTIS AG, priority 2017, dated 2022)
Like-named read-outs stand apart in the source and are kept apart here.

Tests used:
Format in all cases: cell-based
[1] = test system: Leishmania donovani axenic amastigote; test: In vitro assay for growth inhibition of Leishmania donovani axenic amastigote (Cell TiterGlo luminescence); settings: Leishmania donovani, L. donovani axenic amastigotes in vitro; read-out: L. donovani amastigotes EC50
Method in brief: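 Compound-treated wells received 9600 axenic amastigotes in RPMI 1640-based medium at pH 5.5 (37 °C, 5% CO2). Growth measured as ATP luminescence (CellTiter-Glo) after 2-day incubation; DMSO and reference compounds served as controls.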

[2] = test system: L. donovani HU3 strain in mouse peritoneal macrophages; test: Assay for inhibition of parasitemia of Leishmania donovani in mouse macrophages (SYBR Green nuclei count, high-content imaging); settings: Leishmania donovani, Peritoneal macrophage, read-out: L. donovani in Mouse Macrophages EC50
Description: Assay for Inhibition of Parasitemia of Leishmania donovani in Mouse Macrophages
The assay measures the increase in the parasite number in the assayed plate well using a DNA intercalating dye, SYBR Green I® dye (INVITROGEN) to stain Leishmania cell nuclei. L. donovani HU3 strain is propagated by infecting BALB/c mice through tail vein injection with 10^7 Leishmania parasites. Infected mice are allowed to develop infection during 9-11 weeks post-infection. During this time, the parasites accumulate in the infected mouse spleens to large numbers, and the infected mice serve as the source of parasites for the in vitro measurement of compound efficacies. To assay a compound for anti-leishmanial activity, peritoneal macrophages isolated from non-infected BALB/c mice are seeded into 384-well plates at density 2×10^4 macrophages per well in […] of medium (RPM11640, 10% fetal serum albumin, 10 mM HEPES, 1 mM sodium pyruvate, 1% Pen/Strep). Subsequently, the seeded plates are placed into an incubator set to maintain 37° C. temperature and atmosphere with 5% CO2.
The next day, Leishmania parasites are isolated from the spleens of mice infected for 9-11 weeks and 4×10^5 isolated parasites in […] of the above media are added to each plate well. Plates are then returned into incubators and infection is allowed to proceed for 24 hours. After the infection of macrophages is completed, […] of compounds of the invention in the above medium, which also contains 5% DMSO, are added to plate wells containing infected macrophages. At the same time control compounds (miltefosine and amphotericin B) and DMSO are added to plates to serve as the positive and negative controls, respectively. After the compound addition, the plates are returned into incubator and cells infected with parasites are cultured for 5 days. At the end of cultivation, […] of 8% paraformaldehyde is added to plate wells and incubated for 15 min at room temperature. Following the incubation, the paraformaldehyde from plate wells is aspirated, and […] of PBS containing 0.2% Triton X-100 is added to wells. After 15 min incubation, the solution is aspirated from wells again, and replaced with Sybr® Green Dye solution in PBS (1:125,000 dilution). Infected cells are imaged with Evotec Opera high-content microscope, and the number of parasites in well is determined by counting parasite nuclei visualized by staining with Sybr® Green dye.

[3] = test system: Trypanosoma cruzi amastigotes cultured in 3T3 fibroblast cells; test: Assay for growth inhibition of kinetoplastid parasite Trypanosoma cruzi (beta-galactosidase Tulahuen strain, CPRG readout); settings: Trypanosoma cruzi, Fibroblast, T. cruzi amastigotes in 3T3 fibroblast cells; read-out: Buckner infectious T. cruzi EC50
Method in brief: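 3T3 fibroblasts (1,000 cells/well) plated overnight, treated with compound in DMSO, then infected with 10,000 Lac-Z-expressing Tulahuen trypomastigotes. After 6 days, 0.6 mM CPRG with 0.6% NP-40 added for 2 h at room temperature; absorbance gives relative intracellular amastigote numbers. Benznidazole and nifurtimox serve as positive controls.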

[4] = test system: Trypanosoma brucei brucei (Lister 427) strain; test: Assay for growth inhibition against Trypanosoma brucei brucei (Cell TiterGlo ATP luminescence); settings: Trypanosoma brucei, T. brucei brucei (Lister 427); read-out: T. Brucei (HAT) EC50
Method in brief: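 Growth read-out is cellular ATP by CellTiter-Glo luminescence, measured 30 min after reagent addition, following 2-day incubation at 37 °C in CO2. Parasites (10,000/mL, HMI-9 plus 10% FBS and 10% serum plus) faced 10 threefold dilutions in duplicate; IC50 taken as 50% growth inhibition versus untreated.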

[5] = L. donovani in mouse peritoneal macrophages

| Compound | EC50 [1] | EC50 [2, 5] | EC50 [3] | EC50 [4] | EC50 [2] |
| --- | --- | --- | --- | --- | --- |
| O=C(Nc1ccnc(-n2cc3cc(-c4ccccn4)cnc3n2)c1)N1CC(F)C1 [Compound 342, 3-fluoro-N-{2-[5-(pyridin-2-yl)-2H-pyrazolo[3,4-b]pyridin-2-yl]pyridin-4-yl}azetidine-1-carboxamide] | 7 nM | 24 nM | 17 nM | 10 nM | – |
| O=C(Nc1ccc(F)c(-n2cc3cc(CC(F)(F)F)cnc3n2)c1)c1ccco1 [Compound 176, N-{4-fluoro-3-[5-(2,2,2-trifluoroethyl)-2H-pyrazolo[3,4-b]pyridin-2-yl]phenyl}furan-2-carboxamide] | 71 nM | 69 nM | 9.5 nM | – | – |
| CCC(C)c1cnc2nn(-c3cc(NC(=O)N4CC(F)(F)C4)ccc3F)cc2c1 (centres unmarked) [Compound 36, N-{3-[5-(butan-2-yl)-2H-pyrazolo[3,4-b]pyridin-2-yl]-4-fluorophenyl}-3,3-difluoroazetidine-1-carboxamide] | 210 nM | 250 nM | – | – | – |
| O=C(Nc1ccc(F)c(-n2cc3cc(C4CC4)cnc3n2)c1)c1ccco1 [Compound 55, N-(3-{5-cyclopropyl-2H-pyrazolo[3,4-b]pyridin-2-yl}-4-fluorophenyl)furan-2-carboxamide] | 57 nM | 35 nM | 6.3 nM | – | – |
| O=C(Nc1ccc(F)c(-n2cc3cc(N4CC5(CC5)C4)cnc3n2)c1)N1CCCC1 [Compound 337, N-[3-(5-{5-azaspiro[2.3]hexan-5-yl}-2H-pyrazolo[3,4-b]pyridin-2-yl)-4-fluorophenyl]pyrrolidine-1-carboxamide] | – | 13 nM | 4 nM | 7 nM | – |
| [2H]C([2H])([2H])N(c1cnc2nn(-c3cc(NC(=O)N4CC(F)C4)ccc3F)cc2c1)C([2H])([2H])[2H] [Compound 314, N-(3-[5-[bis(^2H3)methylamino]-2H-pyrazolo[3,4-b]pyridin-2-yl]-4-fluorophenyl)-3-fluoroazetidine-1-carboxamide] | 242 nM | 6 nM | 5 nM | – | – |
| O=C(Nc1ccc(F)c(-n2cc3cc(C4CCCC4)cnc3n2)c1)c1ccco1 [Compound 56, N-(3-{5-cyclopentyl-2H-pyrazolo[3,4-b]pyridin-2-yl}-4-fluorophenyl)furan-2-carboxamide] | 240 nM | 550 nM | – | – | – |
| CC(C)CCc1cnc2nn(-c3cc(NC(=O)c4ccco4)ccc3F)cc2c1 [Compound 63, N-{4-fluoro-3-[5-(3-methylbutyl)-2H-pyrazolo[3,4-b]pyridin-2-yl]phenyl}furan-2-carboxamide] | 89 nM | 90 nM | 14 nM | – | – |
| CN(C)C(=O)Nc1ccc(F)c(-n2cc3cc(N(C)C)cnc3n2)c1 [Compound 143, 1-{3-[5-(dimethylamino)-2H-pyrazolo[3,4-b]pyridin-2-yl]-4-fluorophenyl}-3,3-dimethylurea] | 150 nM | 110 nM | – | < 23 nM | – |
| O=C(Nc1ccc(F)c(-n2cc3cc(-c4ccccc4)cnc3n2)c1)N1CC(F)(F)C1 [Compound 353, 3,3-difluoro-N-(4-fluoro-3-(5-phenyl-2H-pyrazolo[3,4-b]pyridin-2-yl)phenyl)azetidine-1-carboxamide] | 5 nM | – | – | 13 nM | 4 nM |
| O=C(Nc1ccc(F)c(-n2cc3cc(C4CCCCC4)cnc3n2)c1)N1CC[C@@H](F)C1 [Compound 44, (3R)-N-(3-{5-cyclohexyl-2H-pyrazolo[3,4-b]pyridin-2-yl}-4-fluorophenyl)-3-fluoropyrrolidine-1-carboxamide] | 29 nM | 32 nM | 22 nM | – | – |
| CC(C)c1cnc2nn(-c3cc(NC(=O)N(C)C)ccc3F)cc2c1 [Compound 228, 1-{4-fluoro-3-[5-(propan-2-yl)-2H-pyrazolo[3,4-b]pyridin-2-yl]phenyl}-3,3-dimethylurea] | 31 nM | – | 10 nM | 30 nM | – |
| CO[C@@H]1CCN(C(=O)Nc2ccc(F)c(-n3cc4cc(C(C)C)cnc4n3)c2)C1 [Compound 225, (3R)-N-{4-fluoro-3-[5-(propan-2-yl)-2H-pyrazolo[3,4-b]pyridin-2-yl]phenyl}-3-methoxypyrrolidine-1-carboxamide] | 37 nM | – | 50 nM | 238 nM | – |
| CC(C)c1cnc2nn(-c3cc(NC(=O)N4CCC5(CC5)C4)ccc3F)cc2c1 [Compound 220, N-{4-fluoro-3-[5-(propan-2-yl)-2H-pyrazolo[3,4-b]pyridin-2-yl]phenyl}-5-azaspiro[2.4]heptane-5-carboxamide] | 15 nM | – | 6 nM | 42 nM | – |
| CC(C)c1cnc2nn(-c3cc(NC(=O)c4ccc(CN(C)C)o4)ccc3F)cc2c1 [Compound 111, 5-[(dimethylamino)methyl]-N-{4-fluoro-3-[5-(propan-2-yl)-2H-pyrazolo[3,4-b]pyridin-2-yl]phenyl}furan-2-carboxamide] | 8700 nM | – | 2900 nM | 10000 nM | – |
| O=C(Nc1ccc(F)c(-n2cc3cc(CC4CCC4)cnc3n2)c1)N1CC(F)(F)C1 [Compound 37, N-{3-[5-(cyclobutylmethyl)-2H-pyrazolo[3,4-b]pyridin-2-yl]-4-fluorophenyl}-3,3-difluoroazetidine-1-carboxamide] | 23 nM | – | 26 nM | < 23 nM | – |
| O=C(Nc1ccc(F)c(-n2cc3cc(N4CCC5(COC5)C4)cnc3n2)c1)N1CC(F)C1 [Compound 183, 3-fluoro-N-[4-fluoro-3-(5-{2-oxa-6-azaspiro[3.4]octan-6-yl}-2H-pyrazolo[3,4-b]pyridin-2-yl)phenyl}azetidine-1-carboxamide] | 12 nM | – | 55 nM | < 23 nM | – |
| CC(C)(C)c1cnc2nn(-c3cc(NC(=O)N4CC[C@@H](F)C4)ccc3F)cc2c1 [Compound 47, (3R)-N-(3-{5-tert-butyl-2H-pyrazolo[3,4-b]pyridin-2-yl}-4-fluorophenyl)-3-fluoropyrrolidine-1-carboxamide] | 23 nM | 27 nM | 2.8 nM | – | – |
| CC(C)c1cnc2nn(-c3cc(NC(=O)C4(C)CCCO4)ccc3F)cc2c1 (centres unmarked) [Compound 77, N-{4-fluoro-3-[5-(propan-2-yl)-2H-pyrazolo[3,4-b]pyridin-2-yl]phenyl}-2-methyloxolane-2-carboxamide] | 17000 nM | – | 6500 nM | 8500 nM | – |
| Cc1nc(C)c(C(=O)Nc2ccc(F)c(-n3cc4cc(-c5ccccc5)cnc4n3)c2)o1 [Compound 352, N-(4-fluoro-3-(5-phenyl-2H-pyrazolo[3,4-b]pyridin-2-yl)phenyl)-2,4-dimethyloxazole-5-carboxamide] | 17 nM | 31 nM | – | 39 nM | – |
| O=C(Nc1ccc(F)c(-n2cc3cc(N4CCN(CC(F)(F)F)CC4)cnc3n2)c1)N1CC(F)(F)C1 [Compound 252, 3,3-difluoro-N-(4-fluoro-3-{5-[4-(2,2,2-trifluoroethyl)piperazin-1-yl]-2H-pyrazolo[3,4-b]pyridin-2-yl}phenyl)azetidine-1-carboxamide] | 183 nM | – | 22 nM | 5 nM | – |
| Cc1cccnc1-c1cnc2nn(-c3cc(NC(=O)N4CC(F)(F)C4)ccc3F)cc2c1 [Compound 5, 3,3-difluoro-N-(4-fluoro-3-(5-(3-methylpyridin-2-yl)-2H-pyrazolo[3,4-b]pyridin-2-yl)phenyl)azetidine-1-carboxamide] | 3.6 nM | – | 5.3 nM | < 23 nM | – |
